Laboratory results from patent publication US4368194A, “Pharmacologically active amine boranes” (The United States of America as represented by the …, priority 1981, dated 1983).
Read-outs that look alike come from different tables or passages of the source.

Assays:
Male Sprague Dawley rats = assay: Chronic adjuvant arthritic screen; type: in vivo
Description: Male Sprague Dawley rats (about 160 g) were injected at the base of the tail with 0.2 ml of solution of killed and dried Mycobacterium butyricum and digitonin in mineral oil (see Waksman et al., J. Immunol., 85, 403 1960). Test drugs were administered intraperitoneally commencing on day 3 through day 20 at 2.5 mg/kg/day. Animals were sacrificed on day 21, and the feet were excised and weighed.

[1] = target: T1, prostaglandin synthetase from beef seminal vesicle (Bos taurus, UniProt O62664); assay: Prostaglandin synthetase activity; type: biochemical; details: for inhibition at 1 µM / activity at 1 µM: 10^-6 M
T1 construct: purchased; host or cells: beef seminal vesicle
T1 sequence (O62664 25-600): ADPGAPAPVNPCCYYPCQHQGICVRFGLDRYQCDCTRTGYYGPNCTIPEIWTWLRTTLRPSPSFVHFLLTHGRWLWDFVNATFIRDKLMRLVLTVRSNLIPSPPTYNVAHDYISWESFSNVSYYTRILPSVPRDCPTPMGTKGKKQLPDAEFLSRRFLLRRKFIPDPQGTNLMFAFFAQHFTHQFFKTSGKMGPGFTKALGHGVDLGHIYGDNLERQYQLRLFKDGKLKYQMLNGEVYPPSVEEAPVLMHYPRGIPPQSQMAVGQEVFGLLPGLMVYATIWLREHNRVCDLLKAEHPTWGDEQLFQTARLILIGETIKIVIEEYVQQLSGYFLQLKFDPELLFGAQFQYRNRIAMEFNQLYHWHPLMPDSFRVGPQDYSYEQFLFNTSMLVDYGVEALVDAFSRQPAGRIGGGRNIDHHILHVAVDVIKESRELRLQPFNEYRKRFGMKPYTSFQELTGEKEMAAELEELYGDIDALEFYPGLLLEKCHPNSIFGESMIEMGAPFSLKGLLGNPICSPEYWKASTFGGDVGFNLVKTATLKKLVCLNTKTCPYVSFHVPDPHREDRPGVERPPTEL
Description: After 1 hr at 37° C. the reaction was stopped with 1 N HCl and extracted with ethyl ether and evaporated. […] The plates were dried and developed in iodine vapor and with the use of prostaglandin standards the appropriate areas were scraped and counted for ^3 H content. Indometacin was used as a standard at 10^-4 M concentration. Test drugs were used at 10^-6 M.

Cathepsin [2] = assay: Lysosomal free cathepsin activity, PMNs; type: cell-based; details: 5 μmoles; for PMNs % Free Cathespin Activity, pH5: in vitro, 60 min
Procedure, shortened: (§1)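 Glycogen-elicited peritoneal PMNs, or liver homogenate, incubated with 5 μmoles test drug in 1% CMC for 60 or 20 min at pH 5.0. Acid phosphatase: 0.1 M β-glycerol phosphate, inorganic phosphate read; cathepsin: 2% azocasein, acid-soluble peptides at 366 nm. Free activity expressed as percent of detergent-released total.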

Cathepsin [3] = assay: Lysosomal free cathepsin activity, liver homogenate; type: biochemical, rats; details: 5 μmoles; for Liver % Free Cathepsin Activity, pH5: in vitro, 20 min
Procedure, shortened: (§2)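 Rat (Sprague Dawley) liver 10% homogenate in 0.25 M sucrose/0.001 M EDTA pH 7.2, incubated 20 min with 5 μmoles test drug in 1% CMC. Acid phosphatase: 0.1 M β-glycerol phosphate, acetate pH 5.0, inorganic phosphate read; cathepsin: 2% azocasein, pH 5.0, acid-soluble fragments at 366 nm. Percent free activity vs. total (0.02% detergent-released).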

Acid phosphatase [4] = assay: Lysosomal free acid phosphatase activity, PMNs; type: cell-based; details: 5 μmoles; for PMNs % Free Acid Phosphatase Activity, pH5: in vitro, 60 min
Procedure, shortened: as §1

CF1 male mice = assay: Writhing reflex (acetic acid); type: in vivo; details: for Writhing Reflex: mice; for inhibition of the writhing reflex: text summary of Table II
Procedure, shortened: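 CF1 male mice were dosed with test drug at 20 mg/kg i.p. 20 min before 0.5 ml of 0.6% acetic acid. Abdominal stretches with hind-limb extension were counted over 10 min, starting 5 min after acid.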

[5] = test system: carrageenan induced edema in mouse foot pads; assay: Anti-inflammatory screen (carrageenan induced foot edema); type: in vivo, mice; details: for Anti-inflammatory Screen: mice; for inhibition of the carrageenan induced edema in mouse foot pads: text summary of Table II
Procedure, shortened: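 Male CF1 mice (~30 g) given 10 mg/kg i.p. in 0.05% polysorbate 80-water, 3 hr and 30 min before 0.05 ml 2% carrageenan injected into the right hind plantar surface, with saline in the left foot as baseline. Feet excised at the ankle after 3 hr and weight increase measured.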

Acid phosphatase [6] = assay: Lysosomal free acid phosphatase activity, liver homogenate; type: biochemical, rats; details: 5 μmoles, in vitro; 20 min
Procedure, shortened: as §2

cAMP levels in PMNs = assay: Cyclic-3',5'-adenosine monophosphate levels (cAMP) in PMNs; type: cell-based; details: 1 h; for activation at 5 µmol: read-out: increase of cyclic adenosine monophosphate levels in PMNs
Procedure, shortened: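 Glycogen-elicited peritoneal neutrophils in MEM with 10% FCS, pH 7.4, exposed to test drugs at 5μ moles for 1 hr at 37° C; stopped with 6% trichloroacetic acid. cAMP measured by radioimmunoassay with 3H-cAMP tracer, expressed as p mole/10^7 PMNs.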

Sprague Dawley rats [7] = assay: Red and white blood cell counts after 3 weeks dosing; type: in vivo; details: dosing for three weeks intraperitoneally, rats
From the text: Hematocrits were also obtained.

liver mitochondria [8] = assay: Oxidative phosphorylation, α-ketoglutarate as substrate; type: biochemical, rats; details: 5 μmoles; for Oxidative Phosphorylation α Ketoglutarate State 3: ADP stimulated respiration; for Oxidative Phosphorylation α Ketoglutarate State 4: basal respiration
Procedure, shortened: (§3)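 Basal and ADP-stimulated respiration of 10% liver homogenates, with succinate (90 μmoles) or α-ketoglutarate (60 μmoles) as substrate, in sucrose/KCl/K2HPO4 medium. Test compounds at 5 μmoles in 1% CMC in 1.8 ml total. Rate given as μl O2 consumed/hr/mg wet liver weight.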

liver mitochondria [9] = assay: Oxidative phosphorylation, succinate as substrate; type: biochemical, rats; details: 5 μmoles; for Oxidative Phosphorylation Succinate State 3: ADP stimulated respiration; for Oxidative Phosphorylation Succinate State 4: basal respiration
Procedure, shortened: as §3

in vivo = details: mouse
Sprague Dawley rats [10] = assay: Anti-pyretic screen; type: in vivo
Description: Sprague Dawley rats (about 200 g) were administered 2 ml of a 44% solution of Baker's yeast subcutaneously (see Roszkowski et al., supra) 18 hr prior to the injection of drugs at 2.5 or 5 mg/kg intraperitoneally resulting in an elevation of 3.46° F. Alternatively, rats were administered 0.25 mg killed and dried Mycobacterium butyricum (Difco) (see Randall et al., Arch int Pharmacodyn et De Ther, 220, 94 1976) subcutaneously prior to the administration of drugs. Rectal temperatures were taken immediately prior to and 2, 4, and 6 hr after drug administration.

[11] = Hydrolytic, air and moisture stability
[12] = read-out: inhibition of prostaglandin synthesis
[13] = indomethacin tested at 10 mg/kg
[14] = pH 7.4, read-out: PMNs cAMP Level
[15] = 1 h, read-out: Prostaglandin Synthesis

SMILES: COc1ccc2c(c1)c(CC(=O)O)c(C)n2C(=O)c1ccc(Cl)cc1 [Indomethacin, reference compound]
- Anti-Arthritic Screen (Male Sprague Dawley rats; indomethacin tested at 10 mg/kg, rats): 27 % Control
- inhibition at 100 µM ([1]; 10^-4 M, read-out: inhibition of prostaglandin synthesis): 36%
- inhibition at 1 µM [1, 12]: 24%
- activity at 100 µM ([1]; 1 h, 10^-4 M (indomethacin), read-out: Prostaglandin Synthesis): 64 ± 2%
- PMNs % Free Cathespin Activity, pH5 (Cathepsin [2]): 100 ± 1 % Control
- Liver % Free Cathepsin Activity, pH5 (Cathepsin [3]): 67 ± 6 % Control
- PMNs % Free Acid Phosphatase Activity, pH5 (Acid phosphatase [4]): 100 ± 2 % Control
- Writhing Reflex (CF1 male mice; [13]): 43 % Control
- Anti-inflammatory Screen [5, 13]: 22 % Control
- Liver % Free Acid Phosphatase Activity, pH5 (Acid phosphatase [6]): 86 ± 4 % Control
- activity at 5 µmol (cAMP levels in PMNs; [14]): 80%

SMILES: C[N+]1([BH2-]C#N)CCOCC1 [XIV, O(CH2 CH2)2 N(CH3).BH2 CN]
- alteration of the red blood or white blood cell count/cu mm (Sprague Dawley rats [7]): no alteration
- Oxidative Phosphorylation α Ketoglutarate State 3 (liver mitochondria [8]): 51 ± 16 % Control
- Oxidative Phosphorylation α Ketoglutarate State 4 (liver mitochondria [8]): 140 ± 47 % Control
- activity at 1 µM [1, 15]: 38 ± 3%
- both states 3 and 4 respiration with succinate (liver mitochondria [9]): inhibited
- Oxidative Phosphorylation Succinate State 3 (liver mitochondria [9]): 36 ± 5 % Control
- Oxidative Phosphorylation Succinate State 4 (liver mitochondria [9]): 62 ± 10 % Control
- PMNs % Free Cathespin Activity, pH5 (Cathepsin [2]): 37 ± 5 % Control
- inhibition of free proteolytic cathepsin activity of liver (Cathepsin [3]): at least 75%
- Liver % Free Cathepsin Activity, pH5 (Cathepsin [3]): 13 ± 5 % Control
- inhibition of free acid phosphatase activity in PMNs (Acid phosphatase [4]): 50%
- PMNs % Free Acid Phosphatase Activity, pH5 (Acid phosphatase [4]): 50 ± 3 % Control
- Writhing Reflex (CF1 male mice; 1/3 dose (of 20 mg/kg)): 78 % Control
- Anti-inflammatory Screen ([5]; 1/3 dose (of 10 mg/kg × 2)): 91 % Control
- Liver % Free Acid Phosphatase Activity, pH5 (Acid phosphatase [6]): 68 ± 7 % Control
- LD50 (in vivo): 23 mg/kg
- activity at 5 µmol (cAMP levels in PMNs; [14]): 165%
- activation at 5 µmol (cAMP levels in PMNs): 65%

SMILES: C[N+](C)(C)[BH2-]C#N [Compound V, trimethylamine-cyanoborane]
- alteration of the red blood or white blood cell count/cu mm (Sprague Dawley rats [7]): no alteration
- both states 3 and 4 respiration with α-ketoglutarate (liver mitochondria [8]): inhibited
- Oxidative Phosphorylation α Ketoglutarate State 3 (liver mitochondria [8]): 42 ± 9 % Control
- Oxidative Phosphorylation α Ketoglutarate State 4 (liver mitochondria [8]): 85 ± 21 % Control
- inhibition in the rat induced arthritic screen (Male Sprague Dawley rats; 1.25 mg/kg/day intraperitoneally): 75%
- inhibition in the rat induced arthritic screen (Male Sprague Dawley rats; 5 mg/kg/day intraperitoneally): 100%
- inhibition in the rat induced arthritic screen (Male Sprague Dawley rats; 10 mg/kg/day intraperitoneally): 100%
- inhibition at 1 µM [1, 12]: > 30%
- activity at 1 µM [1, 15]: 59 ± 6%
- Oxidative Phosphorylation Succinate State 3 (liver mitochondria [9]): 51 ± 20 % Control
- Oxidative Phosphorylation Succinate State 4 (liver mitochondria [9]): 133 ± 20 % Control
- PMNs % Free Cathespin Activity, pH5 (Cathepsin [2]): 4 ± 2 % Control
- inhibition of free proteolytic cathepsin activity of liver (Cathepsin [3]): 100%
- Liver % Free Cathepsin Activity, pH5 (Cathepsin [3]): 0 ± 2 % Control
- inhibition of free acid phosphatase activity in PMNs (Acid phosphatase [4]): 65%
- PMNs % Free Acid Phosphatase Activity, pH5 (Acid phosphatase [4]): 35 ± 5 % Control
- Writhing Reflex (CF1 male mice; 20 mg/kg intraperitoneally): 18 % Control
- inhibition of the writhing reflex (CF1 male mice): 80%
- Anti-inflammatory Screen ([5]; 10 mg/kg × 2 intraperitoneally): 42 % Control
- inhibition of the carrageenan induced edema in mouse foot pads [5]: at least 50%
- Liver % Free Acid Phosphatase Activity, pH5 (Acid phosphatase [6]): 69 ± 4 % Control
- activity at 5 µmol (cAMP levels in PMNs; [14]): 245%
- activation at 5 µmol (cAMP levels in PMNs): 145%
- inhibition of elevated body temperature (Sprague Dawley rats [10]; 5 mg/kg): no inhibition
- inhibition of elevated body temperature (Sprague Dawley rats [10]; 10 mg/kg): no inhibition

SMILES: C[N+](C)(C)[BH2-]C(=O)O [VIII, trimethylamine-carboxyborane]
- uncoupling with α-ketoglutarate as substrate (liver mitochondria [8]): uncoupling
- Oxidative Phosphorylation α Ketoglutarate State 3 (liver mitochondria [8]): 70 ± 20 % Control
- Oxidative Phosphorylation α Ketoglutarate State 4 (liver mitochondria [8]): 127 ± 22 % Control
- activity at 1 µM [1, 15]: 93 ± 3%
- Oxidative Phosphorylation Succinate State 3 (liver mitochondria [9]): 63 ± 4 % Control
- Oxidative Phosphorylation Succinate State 4 (liver mitochondria [9]): 122 ± 14 % Control
- inhibition of PMN cathepsin activity (Cathepsin [2]): at least 82%
- PMNs % Free Cathespin Activity, pH5 (Cathepsin [2]): 14 ± 4 % Control
- Liver % Free Cathepsin Activity, pH5 (Cathepsin [3]): 56 ± 6 % Control
- inhibition of free acid phosphatase activity in PMNs (Acid phosphatase [4]): 50%
- PMNs % Free Acid Phosphatase Activity, pH5 (Acid phosphatase [4]): 50 ± 3 % Control
- Writhing Reflex (CF1 male mice; 20 mg/kg intraperitoneally): 29 % Control
- inhibition of the writhing reflex (CF1 male mice): 70%
- Anti-inflammatory Screen ([5]; 10 mg/kg × 2 intraperitoneally): 79 % Control
- Liver % Free Acid Phosphatase Activity, pH5 (Acid phosphatase [6]): 82 ± 5 % Control
- stability to air and water/moisture [11]: stable in air and H2 O
- activity at 5 µmol (cAMP levels in PMNs; pH 7.4, 5 μmoles, in vitro, read-out: PMNs cAMP Level): 99%

SMILES: N#C[BH2-][NH3+] [XVII, ammonia-cyanoborane]
- Oxidative Phosphorylation α Ketoglutarate State 3 (liver mitochondria [8]): 40 ± 9 % Control
- Oxidative Phosphorylation α Ketoglutarate State 4 (liver mitochondria [8]): 149 ± 27 % Control
- inhibition at 1 µM [1, 12]: > 30%
- activity at 1 µM [1, 15]: 55 ± 6%
- Oxidative Phosphorylation Succinate State 3 (liver mitochondria [9]): 60 ± 11 % Control
- Oxidative Phosphorylation Succinate State 4 (liver mitochondria [9]): 112 ± 7 % Control
- PMNs % Free Cathespin Activity, pH5 (Cathepsin [2]): 26 ± 4 % Control
- Liver % Free Cathepsin Activity, pH5 (Cathepsin [3]): 48 ± 6 % Control
- PMNs % Free Acid Phosphatase Activity, pH5 (Acid phosphatase [4]): 100 ± 2 % Control
- Writhing Reflex (CF1 male mice; 20 mg/kg intraperitoneally): 50 % Control
- Anti-inflammatory Screen ([5]; 10 mg/kg × 2 intraperitoneally): 51 % Control
- inhibition of the carrageenan induced edema in mouse foot pads [5]: at least 40%
- Liver % Free Acid Phosphatase Activity, pH5 (Acid phosphatase [6]): 75 ± 5 % Control
- LD50 (in vivo): 30 mg/kg
- loss of hydrogen (hydrolytic stability) ([11]; concentrated HCl, 70 hr, room temperature): 8%
- activity at 5 µmol (cAMP levels in PMNs; [14]): 93%
